According to article PMC11945201, “Enhancing the Oral Bioavailability of Glutathione Using Innovative Analogue Approaches” (Pharmaceutics, 2025):

Key:
[1] = background statement in abstract, ref not given; cited from earlier work
[2] = in vitro; settings: rat
Description: (§1) To investigate the GSH degradation against common enzymes of the GI tract, the degradation of GSH in the presence of pepsin, chymotrypsin, trypsin, aminopeptidase, GGT, jejunum luminal content, and mucosal homogenates obtained from the rats’ intestines were investigated. GSH (100 μgmL^−1) was incubated at 37 °C with the above enzymes or mixtures for 24 h. The sample was withdrawn at the time intervals of 0, 1, 10, 30, 60, 120, 240, 480, and 1440 min, which were then mixed with equal volume of ice-cold HCl (0.2 molL^−1) until analysis by HPLC. Enzymatic degradation was repeated until three results within <5% SD were obtained.

[3] = biological target: pepsin (Bos taurus, UniProt P00792); experiment: in vitro; settings: bovine, pepsin solution
pepsin, sequence (P00792 43-372): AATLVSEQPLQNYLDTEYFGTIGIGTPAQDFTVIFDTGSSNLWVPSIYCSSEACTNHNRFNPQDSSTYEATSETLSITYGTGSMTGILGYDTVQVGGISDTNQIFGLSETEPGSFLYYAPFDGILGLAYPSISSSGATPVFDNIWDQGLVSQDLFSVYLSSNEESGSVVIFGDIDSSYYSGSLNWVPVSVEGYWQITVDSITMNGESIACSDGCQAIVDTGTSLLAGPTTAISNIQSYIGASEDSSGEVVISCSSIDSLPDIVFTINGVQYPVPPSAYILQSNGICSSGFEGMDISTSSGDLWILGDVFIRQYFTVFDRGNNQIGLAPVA
Description: as §1

[4] = test system: γ-glutamyl transferase (GGT); experiment: in vitro; settings: horse, γ-glutamyl transferase (GGT) solution
Description: as §1

[5] = test system: aminopeptidase; experiment: in vitro; settings: aminopeptidase solution
Description: as §1

[6] = biological target: chymotrypsin (Bos taurus, UniProt P00766); experiment: in vitro; settings: bovine, chymotrypsin solution
Description: as §1

[7] = biological target: trypsin (Bos taurus, UniProt P00760); experiment: in vitro; settings: bovine, trypsin solution
trypsin, sequence (P00760 24-246): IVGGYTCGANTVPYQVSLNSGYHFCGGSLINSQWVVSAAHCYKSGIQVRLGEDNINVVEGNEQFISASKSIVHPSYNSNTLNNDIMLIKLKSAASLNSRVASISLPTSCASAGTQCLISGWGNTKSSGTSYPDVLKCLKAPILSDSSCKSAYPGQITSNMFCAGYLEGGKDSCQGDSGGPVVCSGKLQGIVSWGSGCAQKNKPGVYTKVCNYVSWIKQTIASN
Description: as §1

Question: What does the source list for `N[C@@H](CCC(=O)N[C@@H](CS)C(=O)NCC(=O)O)C(=O)O` [GSH, Glutathione]?
Answer: oral bioavailability [1]: below 1%; half-life at 100 μgmL^−1 ([2]; jejunum luminal contents): 30.5 ± 1.5 h; half-life at 100 μgmL^−1 ([2]; jejunum mucosal homogenates): 9.4 ± 2 h; half-life at 100 μgmL^−1 [3]: 31.4 ± 1.6 h; half-life at 100 μgmL^−1 [4]: 0.7 ± 0.03 h; half-life at 100 μgmL^−1 [5]: 18.9 ± 0.9 h; half-life at 100 μgmL^−1 [6]: 4.6 ± 0.2 h; half-life at 100 μgmL^−1 [7]: 5.8 ± 0.3 h
